Test results: patent US9078851B2, “Composition for preventing or treating a spinal cord injury” (UNIVERSITY-INDUSTRY COOPERATION GROUP OF KYUNG HEE, priority 2009, dated 2015)

Experiments:
[1] = test system: cytokines at spinal cord injury site; assay: Rat cytokine antibody array analysis of spinal cord tissue; type: in vivo; details: tail vein injection
Description: (§1) For the present experiment, male white mice (Sprague-Dawley 240-250 g, 7 weeks, 10 mice) were under general anesthetics by an intraperitoneal injection of Ketamin (80 mg/kg, Yuhan Corporation) and Rompun (7.4 mg/kg, Bayer Korea Corporation). Laminectomy was performed at spine T9-10 level to expose a spinal cord keeping intact dura. And then, rat was put on Spinal cord dropping device (NYU); spine processes at T8 and T11 sites were fixed by using a clamp, respectively; then, a rod (diameter 2 mm, weight 10 g) was dropped from 25 mm height vertical to dorsal part of spinal cord followed by suturing injury site muscle and skin. The rat of Sham-operated control group was performed only laminectomy at same area without damaging spinal cord injury (marked by ‘sham” in figures; hereinafter, the same as above).
(§2) Substance P (marked by ‘SP’ in figures; hereinafter, the same as above) dissolved in saline of 5 nmol/kg concentration was injected through tail vein at immediately, 24 hours, and 48 hours after a spinal cord injury for experimental groups. At sham control group, same volume of saline (marked by ‘vehicle’ in figures; hereinafter, the same as above) without Substance P was injected at same time points. Operation were performed on an electric heating pad of 37° C., and then rat were transferred to cage after awake from the anesthetic. • (2) Preparation of Tissue
A rat cytokine antibody array analysis was performed in order to investigate an effect of Substance P in expressing cytokine.
At immediately, 1 d, and 2d, Substance P or saline (the same volume without Substance P) was injected through tail vein using the same method as (1) of Example 1. After operating, the experimental group (4 rats/group) and the control (4 rats/group) were sacrificed at 1 d and 5d, respectively. The spinal cord tissue (1 cm) obtained from an animal was homogenized with a dissolution buffer solution (10% glycerol, 20 mM Tris [pH 8.0], 137 mM NaCl, 1% Nonidet P-40, 0.5 mM EDTA, 10 mM Na2P2O7, 10 mM NaF, 1 μg/ml aprotinin, 10 μg/ml leupeptin, 1 mM vanadate and 1 mM PMSF). A protein amount of supernatant was determined by BCA assay (Pierce). Subsequently, a cytokine assay was performed according to instructions of Ray Biotech Morcross GA protocol. A membrane was blocked with a blocking buffer solution, then 150 μg of a protein sample was added, and reacted for 2 hours at a room temperature. The membrane was washed and 1 ml of primary antibody conjugated with a biotin was added, and placed at 4° C. overnight. Next day, the membrane was washed, and reacted with 2 ml of streptoavidin conjugated with horseradish peroxidase for 30 minutes at a room temperature. The membrane was developed using enhanced chemiluminescence-type solution, and the film was exposed to Radiography. Using USA NIH Image and Image J software (Hong et al., 2009), density quantification of array was performed.

[2] = test system: TNF-α and IL-10 in peripheral blood; assay: ELISA of cytokines in peripheral blood in spinal cord injury model; type: in vivo, rat; details: 5 nmol/kg tail vein; serum at 1 hour, 6 hours, 1 day, 3 days, 5 days; vs control
Description: as §1, with “above). […]” for “above).”
At immediately, 1 d, 2 ds, in order to investigate an effect of Substance P in cytokine in a peripheral blood, Substance P (5 nmol/kg in saline) or saline (the same volume without Substance P) was injected through tail vein, respectively using the same method as (1) of Example 1. […] Finally, The levels of TNF-α and IL-10 were measured by using ELISA kit (R&D Systems).

[3] = test system: IL-10 expression in nerve cell; assay: Immunofluorescence staining of IL-10 in nerve cells and microglia/macrophages after spinal cord injury; type: in vivo, rat; details: tail vein injection; one day after spinal cord injury
Description: as §1
as §2, with “Tissue […]” for “Tissue”

caspase-3 = assay: Western blot of cleaved caspase-3 in spinal cord tissue; type: in vivo, rat; details: tail vein injection, one day and five days after injury
Description: as §1, with “above). […]” for “above).”
(2) Substance P or saline (the same volume without Substance P) was injected to a tail vein of mice, respectively at immediately, 1 d, 2 ds after a spinal cord injury, using the same method as (1) of Example 1. […] The amounts of proteins in supernatant were determined by using BCA assay (Pierce). […] At this time, β-Tubulin was used as an inner comparing group, and each result were determined by performing four independent experiments.

[4] = five days after spinal cord injury, vs control
[5] = one day after spinal cord injury

With Substance P the “amount of IL-10” value ([1]; 5 d after spinal cord injury) was “higher than the control”, the “expression of IFN-γ” value [1, 4] was “slightly decreased” and the “expression of IL-1α” value [1, 4] was “slightly decreased”. For the same substance, the “amount of IL-6” value [1, 5] was “meaningfully increased”, the “increase of amount of IL-4” value [1, 5] was “two times” and the “increase of amount of IL-10” value [1, 5] was “ten times”. For the same substance, the “level of IL-10 in peripheral blood” value [2] was “no meaningful differences”, the “level of TNF-α in peripheral blood” value [2] was “no meaningful differences” and the “IL-10 expression in cells” value [3] was “specifically expressed at a nerve cell”. For the same substance, the “activation of caspase-3” value (caspase-3) was “significantly decreased”.
